Target: TEK receptor tyrosine kinase (Homo sapiens, UniProt Q02763)
Test: phospho-TEK ELISA on lysates of Ang1-stimulated HUVECs
Format: cell-based

TEK receptor tyrosine kinase, sequence (Q02763 23-1124): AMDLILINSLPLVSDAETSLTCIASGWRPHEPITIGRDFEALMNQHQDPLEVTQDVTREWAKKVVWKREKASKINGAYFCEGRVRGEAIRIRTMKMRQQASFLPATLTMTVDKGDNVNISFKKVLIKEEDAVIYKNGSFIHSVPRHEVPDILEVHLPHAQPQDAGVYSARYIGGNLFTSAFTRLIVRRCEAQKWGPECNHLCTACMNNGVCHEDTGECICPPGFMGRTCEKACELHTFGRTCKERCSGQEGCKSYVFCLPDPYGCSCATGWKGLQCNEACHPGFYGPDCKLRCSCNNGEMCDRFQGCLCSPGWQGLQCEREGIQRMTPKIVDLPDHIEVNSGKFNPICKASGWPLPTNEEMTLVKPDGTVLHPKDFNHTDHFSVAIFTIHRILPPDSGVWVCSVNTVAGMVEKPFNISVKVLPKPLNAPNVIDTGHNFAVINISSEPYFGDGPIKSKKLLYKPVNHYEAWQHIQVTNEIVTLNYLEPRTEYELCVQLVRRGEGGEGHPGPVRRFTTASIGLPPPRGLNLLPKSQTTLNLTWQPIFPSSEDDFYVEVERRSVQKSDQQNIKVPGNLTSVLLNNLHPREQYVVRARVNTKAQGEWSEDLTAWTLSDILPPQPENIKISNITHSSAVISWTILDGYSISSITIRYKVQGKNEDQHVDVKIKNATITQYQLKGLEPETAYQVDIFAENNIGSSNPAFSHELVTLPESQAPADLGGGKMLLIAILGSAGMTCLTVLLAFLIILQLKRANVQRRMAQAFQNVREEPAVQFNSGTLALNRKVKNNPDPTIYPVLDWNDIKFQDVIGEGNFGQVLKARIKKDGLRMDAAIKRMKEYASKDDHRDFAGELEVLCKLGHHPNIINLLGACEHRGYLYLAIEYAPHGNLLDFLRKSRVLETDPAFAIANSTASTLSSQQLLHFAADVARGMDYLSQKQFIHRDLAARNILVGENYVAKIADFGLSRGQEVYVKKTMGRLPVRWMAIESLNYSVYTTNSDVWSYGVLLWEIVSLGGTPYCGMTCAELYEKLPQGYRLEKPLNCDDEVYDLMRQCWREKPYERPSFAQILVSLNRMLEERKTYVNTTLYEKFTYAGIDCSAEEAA

IC50: 4.72 µM
Structure (SMILES): c1cc(-c2cnn3cc(-c4ccc(OCCN5CCCCC5)cc4)cnc23)ccn1 [DM, Dorsomorphin]

— article PMC10480310 (iScience, 2023)
